# According to US20260226037A1, “MICROTUBULE TARGETING AGENTS” (ARIEL SCIENTIFIC INNOVATIONS LTD., priority 2022, published 2026):
# Key:
# RPMI8226 cells = experiment: Cell cycle distribution by flow cytometry; format: cell-based; conditions: 6 hours; IC50, IC50x2.5 and IC50x5 concentrations
# Description: Cell cycle arrest is a shared consequence of MTAs treatment. The effects of cell cycle distribution were determined in RPMI8226 cells treated for 6 and 18 hours with a range of concentrations of the molecules. The cells were stained with propidium iodide and cell cycle distribution was measured using a cytoFLEX flow cytometer.
# RPMI-DOX40 cells = experiment: XTT cytotoxicity, RPMI-DOX40; format: cell-based
# In short: (§1)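 Cells are exposed to compound and viability is scored by XTT.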
# MES-SA cells = experiment: XTT cytotoxicity, MES-SA; format: cell-based; conditions: Homo sapiens, poorly differentiated uterine sarcoma, non-resistant
# In short: as §1
# MES-SA/DX5 cells = experiment: XTT cytotoxicity, MES-SA/DX5; format: cell-based
# In short: as §1
# RPMI 8226 cells = experiment: XTT cytotoxicity, RPMI 8226; format: cell-based; conditions: Homo sapiens, RPMI-8226
# In short: as §1
# MM1.S cells = experiment: XTT cytotoxicity, MM1.S; format: cell-based; conditions: Homo sapiens
# In short: as §1
# RPMI8226 myeloma cells = experiment: Xenograft murine myeloma model, antitumor efficacy; format: in vivo, mice
# Description: In vivo anti-cancer efficacy of the molecules was evaluated in a xenograft murine myeloma model. Male SCID mice (6-8 weeks old) were maintained in accordance with Institutional Animal Care Use Committee guidelines. Mice were housed in the Animal Research Facility of Ariel University and experiments were performed in accordance with approved protocols. […] Mice were sacrificed when mean tumor volume of vehicle treated group reached 1500 mm3, or mice appeared moribund to prevent unnecessary morbidity. Mean tumor volume represents the average of tumor volume in each treatment group during the experiment. The weight of the tumors was measured at the end of the experiment and expressed as mean tumor weight per group. Body weight is expressed as mean body mice weight per group. The individual relative tumor volume (RTV) was defined as Vx/V1, where Vx is the mean tumor volume in mm3 at a given time and V1 at the start of treatment. Relative tumor volume is determined by calculating RTV (%) (mean RTV of treated group)/(mean RTV of control group)). Relative tumor volume inhibition is determined by calculating RTVI (%) (1-RTV %)
# NALM6 cells = experiment: XTT cytotoxicity, NALM6; format: cell-based; conditions: Homo sapiens, NALM-6
# RPMI-MR20 cells = experiment: XTT cytotoxicity, RPMI-MR20; format: cell-based
# In short: as §1
# MCF7-VP cells = experiment: XTT cytotoxicity, MCF7-VP; format: cell-based
# In short: as §1
# [1] = Xenograft murine myeloma model, body weight and toxicity signs; format: in vivo; conditions: during the experiment
# Description: In vivo anti-cancer efficacy of the molecules was evaluated in a xenograft murine myeloma model. Male SCID mice (6-8 weeks old) were maintained in accordance with Institutional Animal Care Use Committee guidelines. Mice were housed in the Animal Research Facility of Ariel University and experiments were performed in accordance with approved protocols. During the experiment, RPMI8226 myeloma cells in exponential growth were harvested from culture, washed three times with sterile PBS, counted and resuspended in sterile PBS (1.5×10^7cells mouse/0.1 ml PBS) and subcutaneously injected on the right flank of male C.B-17/IcrHsd-Prkdc-scid, […] mice. After two weeks of cells injection, when tumors reached a size between 30-60 mm3, mice were assigned into different groups (n=3-5) and started receiving treatment. Body weights were determined twice weekly along with tumor volume {V=[length×(width)2]/2}measurements using electronical caliper. Mice were sacrificed when mean tumor volume of vehicle treated group reached 1500 mm3, or mice appeared moribund to prevent unnecessary morbidity.
# The weight of the tumors was measured at the end of the experiment and expressed as mean tumor weight per group. Body weight is expressed as mean body mice weight per group.
# [2] = test system: colchicine binding site on tubulin protein; experiment: EBI competition assay, RPMI-8226 cells; format: cell-based; conditions: RPMI-8226 living cells
# RPMI-LR5 cells = experiment: XTT cytotoxicity, RPMI-LR5; format: cell-based
# In short: as §1
# MM1.R cells = experiment: XTT cytotoxicity, MM1.R; format: cell-based
# In short: as §1
# N6/ADR cells = experiment: XTT cytotoxicity, N6/ADR; format: cell-based
# MCF7 cells = experiment: XTT cytotoxicity, MCF7; format: cell-based; conditions: Homo sapiens; MCF7, breast adenocarcinoma, non-resistant
# In short: as §1
compound,measurement,setting,value
"Cc1c(C(=O)OCCCCN)oc2c1C(=O)CC(c1ncco1)C2.Cl (stereo not drawn) [SMS228, 4-((3-methyl-6-(oxazol-2-yl)-4-oxo-4,5,6,7-tetrahydrobenzofuran-2-carbonyl)oxy)butan-1-aminium chloride]",cell cycle arrest,RPMI8226 cells,cell cycle arrest in G2M phase
same,IC50,RPMI-DOX40 cells,1310 nM
same,IC50 ratio between resistant and non-resistant cells,RPMI-DOX40 cells; RPMI-DOX40 / RPMI 8226,0.853
same,IC50,MES-SA cells,9520 nM
same,IC50,"MES-SA/DX5 cells; Homo sapiens, MES-SA/DX5, uterine sarcoma, P-gp overexpression",7410 nM
same,IC50 ratio between resistant and non-resistant cells,MES-SA/DX5 cells; MES-SA/DX5 / MES-SA,0.778
same,IC50,RPMI 8226 cells,1530 nM
same,IC50,MM1.S cells,4430 nM
same,Relative tumor volume inhibition,"RPMI8226 myeloma cells; 15 mg/kg intraperitoneally, after 21 days",20%
same,Relative tumor volume inhibition,"RPMI8226 myeloma cells; 30 mg/kg intraperitoneally, after 21 days",23%
same,growth inhibition rate (tumor weight at end of experiment),RPMI8226 myeloma cells; 30 mg/kg subcutaneously,70%
same,Relative tumor volume inhibition,"RPMI8226 myeloma cells; 30 mg/kg subcutaneously, after 19 days",45%
same,tumor volume lower in the treated group vs vehicle,"RPMI8226 myeloma cells; 30 mg/kg subcutaneously, beginning of the experiment",56%
same,tumor volume lower in the treated group vs vehicle,"RPMI8226 myeloma cells; 30 mg/kg subcutaneously, day 21",76%
same,Relative tumor volume inhibition,"RPMI8226 myeloma cells; 50 mg/kg intraperitoneally, after 21 days",42%
same,decrease of tumor volume as compared to vehicle at the same day,"RPMI8226 myeloma cells; 50 mg/kg intraperitoneally, day 7 to 19",30%
same,decrease of tumor volume as compared to vehicle at the same day,"RPMI8226 myeloma cells; 50 mg/kg intraperitoneally, day 21",40%
same,growth inhibition rate (tumor weight at end of experiment),RPMI8226 myeloma cells; intraperitoneally,44%
same,IC50,NALM6 cells,350 nM
same,IC50,RPMI-MR20 cells,2230 nM
same,IC50 ratio between resistant and non-resistant cells,RPMI-MR20 cells; RPMI-MR20 / RPMI 8226,>1.454
same,IC50,"MCF7-VP cells; Homo sapiens, MCF7-VP, breast adenocarcinoma, MRP overexpression",12300 nM
same,IC50 ratio between resistant and non-resistant cells,MCF7-VP cells; MCF7-VP / MCF7,1.400
same,body weight and other signs of potential toxicity,[1]; 30 mg/kg subcutaneously,No significant changes in body weight or other signs of potential toxicity
same,body weight and other signs of potential toxicity,[1]; intraperitoneally,No significant changes in body weight or other signs of potential toxicity
same,prevention of covalent binding of EBI to the colchicine binding site,[2],did not prevent the covalent binding of EBI to the colchicine binding site
same,IC50,RPMI-LR5 cells,1300 nM
same,IC50 ratio between resistant and non-resistant cells,RPMI-LR5 cells; RPMI-LR5 / RPMI 8226,0.847
same,IC50 ratio between resistant and non-resistant cells,MM1.R cells; MM1.R / MM1.S,>0.406
same,IC50,MM1.R cells; MM.1R,> 1800 nM
same,IC50,N6/ADR cells,360 nM
same,IC50 ratio between resistant and non-resistant cells,N6/ADR cells; N6/ADR / NALM6,1.029
same,IC50,MCF7 cells,8810 nM
